Test results from patent publication US11292770B2, “Pyridazinone herbicides” (FMC Corporation, priority 2017, dated 2022).

system: ryegrass, Italian (Italian ryegrass, Lolium multiflorum); experiment: Test A preemergence, ryegrass, Italian; format: in vivo; conditions: 31 g ai/ha, 0 to 100 scale
Source text: (§1) Seeds of plant species selected from barnyardgrass (Echinochloa crus-galli), kochia (Kochia scoparia), ragweed (common ragweed, Ambrosia elation), ryegrass, Italian (Italian ryegrass, Lolium multiflorum), foxtail, green (green foxtail, Setaria viridis), and pigweed (Amaranthus retroflexus) were planted into a blend of loam soil and sand and treated preemergence with a directed soil spray using test chemicals formulated in a non-phytotoxic solvent mixture which included a surfactant. At the same time, plants selected from these weed species and also wheat (Triticum aestivum), corn (Zea mays), blackgrass (Alopecurus myosuroides), and galium (catchweed bedstraw, Galium aparine) were planted in pots containing the same blend of loam soil and sand and treated with postemergence applications of test chemicals formulated in the same manner Plants ranged in height from 2 to 10 cm and were in the one- to two-leaf stage for the postemergence treatment. Treated plants and untreated controls were maintained in a greenhouse for approximately 10 d, after which time all treated plants were compared to untreated controls and visually evaluated for injury. Plant response ratings, summarized in Table A, are based on a 0 to 100 scale where 0 is no effect and 100 is complete control. A dash (—) response means no test result.

With Cn1nc(Cl)c(O)c(-c2c3ccccc3cc3ccccc23)c1=O [Compound 1, 4-(9-anthracenyl)-6-chloro-5-hydroxy-2-methyl-3(2H)-pyridazinone] as the compound, how does the “Plant response rating, Ryegrass, Italian” value read?
Its value is 20.

same assay, conditions: 125 g ai/ha, 0 to 100 scale

With Cn1nc(Cl)c(O)c(-c2c3ccccc3cc3ccccc23)c1=O [Compound 1, 4-(9-anthracenyl)-6-chloro-5-hydroxy-2-methyl-3(2H)-pyridazinone] as the compound, how does the “Plant response rating, Ryegrass, Italian” value read?
Its value is 30.

system: kochia (Kochia scoparia); experiment: Test A preemergence, kochia; format: in vivo; conditions: 31 g ai/ha, 0 to 100 scale
Source text: as §1

With Cn1nc(Cl)c(O)c(-c2c3ccccc3cc3ccccc23)c1=O [Compound 1, 4-(9-anthracenyl)-6-chloro-5-hydroxy-2-methyl-3(2H)-pyridazinone] as the compound, how does the “Plant response rating, Kochia” value read?
Its value is 0.

same assay, conditions: 125 g ai/ha, 0 to 100 scale

Which “Plant response rating, Kochia” value does the source give for Cn1nc(Cl)c(O)c(-c2c3ccccc3cc3ccccc23)c1=O [Compound 1, 4-(9-anthracenyl)-6-chloro-5-hydroxy-2-methyl-3(2H)-pyridazinone] here?
Its value is 20.

system: barnyardgrass (Echinochloa crus-galli); experiment: Test B flooded paddy test, barnyardgrass; format: in vivo; conditions: Flood, 250 g ai/ha; scale of 0 to 100, 0 no effect, 100 complete control
Experimental: (§2) Plant species in the flooded paddy test selected from rice (Oryza sativa), sedge, umbrella (small-flower umbrella sedge, Cyperus difformis), ducksalad (Heteranthera limosa), and barnyardgrass (Echinochloa crus-galli) were grown to the 2-leaf stage for testing. At the time of treatment, test pots were flooded to 3 cm above the soil surface, treated by application of test compounds directly to the paddy water, and then maintained at that water depth for the duration of the test. Treated plants and controls were maintained in a greenhouse for 13 to 15 d, after which time all species were compared to controls and visually evaluated. Plant response ratings, summarized in Table B, are based on a scale of 0 to 100 where 0 is no effect and 100 is complete control. A dash (—) response means no test result.

How did the “Plant response rating, Barnyardgrass” value turn out when Cn1nc(Cl)c(O)c(-c2c3ccccc3cc3ccccc23)c1=O [Compound 1, 4-(9-anthracenyl)-6-chloro-5-hydroxy-2-methyl-3(2H)-pyridazinone] was run?
The value was 20.

system: ragweed (common ragweed, Ambrosia elation); experiment: Test A postemergence, ragweed; format: in vivo; conditions: 31 g ai/ha, 0 to 100 scale
Source text: as §1

Cn1nc(Cl)c(O)c(-c2c3ccccc3cc3ccccc23)c1=O [Compound 1, 4-(9-anthracenyl)-6-chloro-5-hydroxy-2-methyl-3(2H)-pyridazinone] was tested. Which “Plant response rating, Ragweed” value did it give?
The value was 80.

same assay, conditions: 125 g ai/ha, 0 to 100 scale

For Cn1nc(Cl)c(O)c(-c2c3ccccc3cc3ccccc23)c1=O [Compound 1, 4-(9-anthracenyl)-6-chloro-5-hydroxy-2-methyl-3(2H)-pyridazinone], which “Plant response rating, Ragweed” value is on record?
The value was 90.

system: blackgrass (Alopecurus myosuroides); experiment: Test A postemergence, blackgrass; format: in vivo; conditions: 31 g ai/ha, 0 to 100 scale
Source text: as §1

For Cn1nc(Cl)c(O)c(-c2c3ccccc3cc3ccccc23)c1=O [Compound 1, 4-(9-anthracenyl)-6-chloro-5-hydroxy-2-methyl-3(2H)-pyridazinone], which “Plant response rating, Blackgrass” value is on record?
The value was 0.

same assay, conditions: 125 g ai/ha, 0 to 100 scale

For Cn1nc(Cl)c(O)c(-c2c3ccccc3cc3ccccc23)c1=O [Compound 1, 4-(9-anthracenyl)-6-chloro-5-hydroxy-2-methyl-3(2H)-pyridazinone], which “Plant response rating, Blackgrass” value is on record?
The value was 10.

system: rice (Oryza sativa); experiment: Test B flooded paddy test, rice; format: in vivo; conditions: Flood, 250 g ai/ha; scale of 0 to 100
Experimental: as §2

How did the “Plant response rating, Rice” value turn out when Cn1nc(Cl)c(O)c(-c2c3ccccc3cc3ccccc23)c1=O [Compound 1, 4-(9-anthracenyl)-6-chloro-5-hydroxy-2-methyl-3(2H)-pyridazinone] was run?
Its value is 0.

system: pigweed (Amaranthus retroflexus); experiment: Test A preemergence, pigweed; format: in vivo; conditions: 31 g ai/ha, 0 to 100 scale
Source text: as §1

Which “Plant response rating, Pigweed” value does the source give for Cn1nc(Cl)c(O)c(-c2c3ccccc3cc3ccccc23)c1=O [Compound 1, 4-(9-anthracenyl)-6-chloro-5-hydroxy-2-methyl-3(2H)-pyridazinone] here?
The value was 100.

same assay, conditions: 125 g ai/ha, 0 to 100 scale

How did the “Plant response rating, Pigweed” value turn out when Cn1nc(Cl)c(O)c(-c2c3ccccc3cc3ccccc23)c1=O [Compound 1, 4-(9-anthracenyl)-6-chloro-5-hydroxy-2-methyl-3(2H)-pyridazinone] was run?
The value was 100.

system: barnyardgrass (Echinochloa crus-galli); experiment: Test A postemergence, barnyardgrass; format: in vivo; conditions: 31 g ai/ha, 0 to 100 scale
Source text: as §1

With Cn1nc(Cl)c(O)c(-c2c3ccccc3cc3ccccc23)c1=O [Compound 1, 4-(9-anthracenyl)-6-chloro-5-hydroxy-2-methyl-3(2H)-pyridazinone] as the compound, how does the “Plant response rating, Barnyardgrass” value read?
Its value is 0.

same assay, conditions: 125 g ai/ha, 0 to 100 scale, 0 no effect, 100 complete control

Which “Plant response rating, Barnyardgrass” value does the source give for Cn1nc(Cl)c(O)c(-c2c3ccccc3cc3ccccc23)c1=O [Compound 1, 4-(9-anthracenyl)-6-chloro-5-hydroxy-2-methyl-3(2H)-pyridazinone] here?
The value was 20.

system: ragweed (common ragweed, Ambrosia elation); experiment: Test A preemergence, ragweed; format: in vivo; conditions: 31 g ai/ha, 0 to 100 scale
Source text: as §1

Cn1nc(Cl)c(O)c(-c2c3ccccc3cc3ccccc23)c1=O [Compound 1, 4-(9-anthracenyl)-6-chloro-5-hydroxy-2-methyl-3(2H)-pyridazinone] was tested. Which “Plant response rating, Ragweed” value did it give?
The value was 70.

same assay, conditions: 125 g ai/ha, 0 to 100 scale

With Cn1nc(Cl)c(O)c(-c2c3ccccc3cc3ccccc23)c1=O [Compound 1, 4-(9-anthracenyl)-6-chloro-5-hydroxy-2-methyl-3(2H)-pyridazinone] as the compound, how does the “Plant response rating, Ragweed” value read?
Its value is 100.

system: sedge, umbrella (small-flower umbrella sedge, Cyperus difformis); experiment: Test B flooded paddy test, sedge, umbrella; format: in vivo; conditions: Flood, 250 g ai/ha; scale of 0 to 100
Experimental: as §2

For Cn1nc(Cl)c(O)c(-c2c3ccccc3cc3ccccc23)c1=O [Compound 1, 4-(9-anthracenyl)-6-chloro-5-hydroxy-2-methyl-3(2H)-pyridazinone], which “Plant response rating, Sedge, Umbrella” value is on record?
The value was 90.

system: corn (Zea mays); experiment: Test A postemergence, corn; format: in vivo; conditions: 31 g ai/ha, 0 to 100 scale
Source text: as §1

For Cn1nc(Cl)c(O)c(-c2c3ccccc3cc3ccccc23)c1=O [Compound 1, 4-(9-anthracenyl)-6-chloro-5-hydroxy-2-methyl-3(2H)-pyridazinone], which “Plant response rating, Corn” value is on record?
Its value is 0.
